# From the supplement of paper PMC11208160
# Test: recombinant barcode read abundance after kanamycin selection (control-corrected) (log10(CPM+1)); higher = more efficient recombination; sequences stand for … in AGTGCAGAGAAAATCGGCCAGTTTTCTCTGCCTGCAGTCCGCATGCCGT…AGATTTATGCAGCGGACTGCCTTTCTCCCAAAGTGATAAACCGGACAGTATCATGGACCGGTTTTCCCGGTAATCCGTATTTGCAAGGTTGGTTTCACT; site = the 11-nt target
# In short: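 Each value is log10(CPM+1). It describes recombination efficiency, taken as averaged, control-corrected counts per million of barcodes at recombinant junctions. The pooled E. coli library paired targets with IS621 bridge RNA target-binding loops, was co-electroporated with a donor plasmid, and was plated twice on chloramphenicol/ampicillin LB agar (control) and twice on chloramphenicol/ampicillin/kanamycin containing 0.1 mM IPTG.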
# 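Further: IS621 recombinase and bridge RNA in Escherichia coli cells.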
row,Sequence,recombinant barcode read abundance (log10)
1,TCTGGGCCTTGGGTTCTAACCTGTTGCTA (site TCTGGGCCTTA),0.364
2,TCTTAGACTTGGGTTCTAACCTGTTGCGA (site CAAACCTCTGT),0.0411
3,TCTTAGACTTGGGTTCTAACCTGTTGCGA (site TCTTAGACTTC),0.638
4,TCTTAGACTTGGGTTCTAACCTGTTGCGG (site ACTTAGACTCC),0.172
5,TCTTAGACTTGGGTTCTAACCTGTTGCGG (site TCTTAGACTCC),1.47
6,TCTTATTCTTGGGTTCTAACCTGTTGCGT (site TCTAATTCTAC),0.0715
7,TCTTATTCTTGGGTTCTAACCTGTTGCGT (site TCTCATTCTAC),0.0847
8,TCTTATTCTTGGGTTCTAACCTGTTGCGT (site TCTGATTCTAC),0.0368
9,TCTTATTCTTGGGTTCTAACCTGTTGCGT (site TCTTATTCTAC),0.258
10,TCTTGGACTTGGGTTCTAACCTGTTGCAC (site AGGGACCCTAG),0.0242
11,TCTTGGACTTGGGTTCTAACCTGTTGCAC (site TCTTGGACTGT),0.104
12,TCTTGGACTTGGGTTCTAACCTGTTGCTC (site TCTTGGACTAA),0.0489
13,TCTTGGACTTGGGTTCTAACCTGTTGCTC (site TCTTGGACTCA),0.153
14,TCTTGGACTTGGGTTCTAACCTGTTGCTC (site TCTTGGACTGA),0.165
15,TCTTGGACTTGGGTTCTAACCTGTTGCTC (site TCTTGGACTTA),0.0183
16,TCTTGTCCTTGGGTTCTAACCTGTTGCGG (site TCTTGTCCTAC),0.0164
17,TCTTGTCCTTGGGTTCTAACCTGTTGCGG (site TCTTGTCCTCC),0.526
18,TCTTGTCCTTGGGTTCTAACCTGTTGCGG (site TCTTGTCCTGC),0.104
19,TCTTGTCCTTGGGTTCTAACCTGTTGCGG (site TCTTGTCCTTC),0.0135
20,TCTTTAGCTTGGGTTCTAACCTGTTGCAG (site CTAAGGTCTTA),0.24
21,TCTTTAGCTTGGGTTCTAACCTGTTGCAG (site TCTTTAGCTCT),0.236
22,TGAAACTCTTGGGTTCTAACCTGTTGCGG (site GTCGGTCCTGT),0.27

row,Sequence,recombinant barcode read abundance (log10)
1,TGAAACTCTTGGGTTCTAACCTGTTGCGG (site TGAAACTCTCC),1.16
2,TGAAAGACTTGGGTTCTAACCTGTTGCCG (site GACGGACCTAT),0.475
3,TGAAAGACTTGGGTTCTAACCTGTTGCCG (site TGAAAGACTCG),0.762
4,TGAAGGTCTTGGGTTCTAACCTGTTGCCT (site TGAAAGTCTAG),0.213
5,TGAAGGTCTTGGGTTCTAACCTGTTGCCT (site TGAACGTCTAG),0.175
6,TGAAGGTCTTGGGTTCTAACCTGTTGCCT (site TGAAGGTCTAG),0.485
7,TGAAGGTCTTGGGTTCTAACCTGTTGCCT (site TGAATGTCTAG),0.362
8,TGACCTACTTGGGTTCTAACCTGTTGCCA (site CTCTACTCTAC),0.242
9,TGACCTACTTGGGTTCTAACCTGTTGCCA (site TGACCTACTTG),0.133
10,TGACTCTCTTGGGTTCTAACCTGTTGCCT (site TAACTCTCTAG),0.163
11,TGACTCTCTTGGGTTCTAACCTGTTGCCT (site TCACTCTCTAG),0.172
12,TGACTCTCTTGGGTTCTAACCTGTTGCCT (site TGACTCTCTAG),1.02
13,TGACTCTCTTGGGTTCTAACCTGTTGCCT (site TTACTCTCTAG),0.228
14,TGAGAAGCTTGGGTTCTAACCTGTTGCCT (site TGACCAGCTAG),0.299
15,TGAGAAGCTTGGGTTCTAACCTGTTGCCT (site TGAGAAGCTAG),1.1
16,TGAGCACCTTGGGTTCTAACCTGTTGCCT (site AGAGGACCTAG),0.158
17,TGAGCACCTTGGGTTCTAACCTGTTGCCT (site TGAGCACCTAG),1.74
18,TGAGGCACTTGGGTTCTAACCTGTTGCCT (site TGAGGATCTAG),0.03
19,TGAGGCACTTGGGTTCTAACCTGTTGCCT (site TGAGGCACTAG),0.474
20,TGAGGGCCTTGGGTTCTAACCTGTTGCCT (site AGAGGTCCTAG),0.186
21,TGAGGGCCTTGGGTTCTAACCTGTTGCCT (site TGAGGGCCTAG),1.26
22,TGAGGGGCTTGGGTTCTAACCTGTTGCCT (site TGAGAGGCTAG),0.275

row,Sequence,recombinant barcode read abundance (log10)
1,TGAGGGGCTTGGGTTCTAACCTGTTGCCT (site TGAGCGGCTAG),0.242
2,TGAGGGGCTTGGGTTCTAACCTGTTGCCT (site TGAGGGGCTAG),1.24
3,TGAGGGGCTTGGGTTCTAACCTGTTGCCT (site TGAGTGGCTAG),0.197
4,TGAGGGTCTTGGGTTCTAACCTGTTGCTT (site AGAGGGTCTAA),0.497
5,TGAGGGTCTTGGGTTCTAACCTGTTGCTT (site CGAGGGTCTAA),0.136
6,TGAGGGTCTTGGGTTCTAACCTGTTGCTT (site GGAGGGTCTAA),0.0368
7,TGAGGGTCTTGGGTTCTAACCTGTTGCTT (site TGAGGGTCTAA),0.452
8,TGAGTCTCTTGGGTTCTAACCTGTTGCCA (site ACCCAGCCTCT),0.0473
9,TGAGTCTCTTGGGTTCTAACCTGTTGCCA (site TGAGTCTCTTG),1.47
10,TGAGTTCCTTGGGTTCTAACCTGTTGCTT (site TGAGTACCTAA),0.0626
11,TGAGTTCCTTGGGTTCTAACCTGTTGCTT (site TGAGTCCCTAA),0.0401
12,TGAGTTCCTTGGGTTCTAACCTGTTGCTT (site TGAGTGCCTAA),0.00865
13,TGAGTTCCTTGGGTTCTAACCTGTTGCTT (site TGAGTTCCTAA),0.719
14,TGATAGACTTGGGTTCTAACCTGTTGCAC (site AGAGAGACTGT),0.0172
15,TGATAGACTTGGGTTCTAACCTGTTGCAC (site TGATAGACTGT),1.38
16,TGATTTCCTTGGGTTCTAACCTGTTGCCT (site AGATTGCCTAG),0
17,TGATTTCCTTGGGTTCTAACCTGTTGCCT (site TGATTTCCTAG),0
18,TGCAATACTTGGGTTCTAACCTGTTGCAT (site ACAGTATCTCA),0.054
19,TGCAATACTTGGGTTCTAACCTGTTGCAT (site TGCAATACTAT),0.136
20,TGCAGGGCTTGGGTTCTAACCTGTTGCGG (site GCATACACTTG),0.177
21,TGCAGGGCTTGGGTTCTAACCTGTTGCGG (site TGCAGGGCTCC),1.26
22,TGCCAGACTTGGGTTCTAACCTGTTGCAT (site TGCCAGACTAT),1.12
